According to ChEMBL document CHEMBL2321853, “Novel acylethanolamide derivatives that modulate body weight through enhancement of hypothalamic pro-opiomelanocortin (POMC) and/or decreased neuropeptide Y (NPY)” (J Med Chem, 2013):
The source made the active and inactive calls. No cut-off for these calls is given here.

Columns and labels:
Mus musculus [1] = assay: Antiobesity activity in Sabra mouse assessed as reduction in body weight at 1 mg/kg, ip administered on day 0, 10, 11, 12, 24, 29 measured on day 36 relative to control; type: functional; set-up: scale not given: the % may be the effect or the level left; conditions: route intraperitoneal
Mus musculus [2] = assay: Antiobesity activity in Sabra mouse assessed as reduction in body weight at 1 mg/kg, ip administered on day 0, 10, 11, 12, 24, 29 measured on day 26 relative to control; type: functional; set-up: scale not given: the % may be the effect or the level left; conditions: route intraperitoneal
Mus musculus [3] = assay: Antiobesity activity in C57BL/6 mouse assessed as change in glucose level in blood at 5 mg/kg, ip administered on day 1, 4, 5, 7, 17, 15, 19 measured on day 19 relative to control; type: functional; conditions: route intraperitoneal
Mus musculus [4] = assay: Antiobesity activity in C57BL/6 mouse assessed as change in glucose level in blood at 5 mg/kg, ip administered on day 1, 4, 5, 7, 17, 15, 19 measured on day 9 relative to control; type: functional; conditions: route intraperitoneal
Mus musculus [5] = assay: Antiobesity activity in C57BL/6 mouse assessed as change in glucose level in blood at 5 mg/kg, ip administered on day 1, 4, 5, 7, 17, 15, 19 measured on day 3 relative to control; type: functional; conditions: route intraperitoneal
Mus musculus [6] = assay: Antiobesity activity in C57BL/6 mouse assessed as weight loss at 5 mg/kg, ip administered on day 1, 4, 5, 7, 17, 15, 19 measured on day 19 relative to control; type: functional; conditions: route intraperitoneal
Mus musculus [7] = assay: Antiobesity activity in C57BL/6 mouse assessed as weight loss at 5 mg/kg, ip administered on day 1, 4, 5, 7, 17, 15, 19 measured on day 17 relative to control; type: functional; conditions: route intraperitoneal
Mus musculus [8] = assay: Antiobesity activity in C57BL/6 mouse assessed as weight loss at 5 mg/kg, ip administered on day 1, 4, 5, 7, 17, 15, 19 measured on day 12 relative to control; type: functional; conditions: route intraperitoneal
Mus musculus [9] = assay: Antiobesity activity in C57BL/6 mouse assessed as weight loss at 5 mg/kg, ip administered on day 1, 4, 5, 7, 17, 15, 19 measured on day 8 relative to control; type: functional; conditions: route intraperitoneal
Mus musculus [10] = assay: Antiobesity activity in Sabra mouse assessed as change in body weight at 1 mg/kg, ip administered on day 8, 12 and 43 measured on day 54 relative to control; type: functional; conditions: route intraperitoneal
Mus musculus [11] = assay: Antiobesity activity in Sabra mouse assessed as change in body weight at 1 mg/kg, ip administered on day 8, 12 and 43 measured on day 50 relative to control; type: functional; conditions: route intraperitoneal
Mus musculus [12] = assay: Antiobesity activity in Sabra mouse assessed as change in body weight at 1 mg/kg, ip administered on day 8, 12 and 43 measured on day 43 relative to control; type: functional; conditions: route intraperitoneal
Mus musculus [13] = assay: Antiobesity activity in Sabra mouse assessed as change in body weight at 1 mg/kg, ip administered on day 8, 12 and 43 measured on day 33 relative to control; type: functional; conditions: route intraperitoneal
Mus musculus [14] = assay: Antiobesity activity in Sabra mouse assessed as change in body weight at 1 mg/kg, ip administered on day 8, 12 and 43 measured on day 8 relative to control; type: functional; conditions: route intraperitoneal
Mus musculus [15] = assay: Hepatotoxicity in Sabra mouse assessed as centrilobular apoptotic changes at 1 mg/kg, ip administered on day 8, 9, 10, 11, 14, 18, 24 and 32 by hematoxylin and eosin staining-based histopathological analysis; type: toxicity, organism-based; set-up: dose 1 mg/kg, route intraperitoneal; conditions: in vivo
Mus musculus [16] = assay: Hepatotoxicity in Sabra mouse assessed as ischemic changes at 1 mg/kg, ip administered on day 8, 9, 10, 11, 14, 18, 24 and 32 by hematoxylin and eosin staining-based histopathological analysis; type: toxicity, organism-based; set-up: dose 1 mg/kg, route intraperitoneal; conditions: in vivo
Mus musculus [17] = assay: Enhancement of cognitive function C57BL/6 mouse assessed as reduction food consumption at 1 mg/kg, ip administered on day 3, 6, 8, 9, 10 measured on day 10; type: functional, organism-based; set-up: dose 1 mg/kg
Mus musculus [18] = assay: Enhancement of cognitive function in Sabra mouse at 1 mg/kg, ip administered on day 6 to 10 by eight-arm maze test; type: functional, organism-based; set-up: dose 1 mg/kg
Hypothalamus = assay: Effect on FAAH gene expression in Sabra mouse hypothalamus assessed as change in mRNA level at 1 mg/kg, ip administered on day 8, 9, 10, 11, 14, 18, 24 and 32 by RT-PCR analysis relative to GAPDH; type: functional; conditions: route intraperitoneal
[19] = biological target: Transient receptor potential cation channel subfamily V member 1 (Rattus norvegicus) (UniProt O35433); assay: Displacement of [3H]resiniferatoxin from TRPV1 receptor in Wistar rat spinal cord at 10 uM relative to control
[20] = biological target: T1, Fatty-acid amide hydrolase 1 (Rattus norvegicus) (UniProt P97612); assay: Inhibition of rat brain FAAH using [3H]anandamide as substrate at 10 uM preincubated for 15 mins before substrate addition relative to control
T1 sequence (whole entry): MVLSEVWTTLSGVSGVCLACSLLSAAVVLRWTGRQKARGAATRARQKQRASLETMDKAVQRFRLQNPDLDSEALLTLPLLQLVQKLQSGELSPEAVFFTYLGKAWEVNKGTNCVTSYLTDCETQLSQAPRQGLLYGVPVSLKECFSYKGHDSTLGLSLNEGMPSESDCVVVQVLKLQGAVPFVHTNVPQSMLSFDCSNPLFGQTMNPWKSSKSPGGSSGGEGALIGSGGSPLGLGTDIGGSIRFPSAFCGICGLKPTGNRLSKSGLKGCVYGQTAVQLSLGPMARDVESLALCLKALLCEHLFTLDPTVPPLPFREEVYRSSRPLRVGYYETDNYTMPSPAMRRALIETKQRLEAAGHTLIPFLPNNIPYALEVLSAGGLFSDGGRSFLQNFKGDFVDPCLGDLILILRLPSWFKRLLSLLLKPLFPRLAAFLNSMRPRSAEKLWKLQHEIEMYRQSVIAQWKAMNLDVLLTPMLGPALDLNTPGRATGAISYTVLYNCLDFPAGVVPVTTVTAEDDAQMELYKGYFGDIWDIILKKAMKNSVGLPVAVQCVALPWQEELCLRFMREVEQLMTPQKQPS

Mus musculus [21] = assay: Enhancement of motor activity C57BL/6 mouse assessed as reduction food consumption at 1 mg/kg, ip administered on day 3, 6, 8, 9, 10 measured on day 10; type: functional, organism-based; set-up: dose 1 mg/kg
Mus musculus [22] = assay: Antiobesity activity in high fat diet fed C57BL/6 mouse assessed as reduction in body weight at 1 mg/kg, ip administered on day 3, 6, 8, 9, 10 measured on day 9 relative to control; type: functional; set-up: scale not given: the % may be the effect or the level left; conditions: route intraperitoneal
Mus musculus [23] = assay: Antiobesity activity in Sabra mouse assessed as reduction in body weight at 10 mg/kg, administered for 6 to 51 days via oral gavage measured on day 52 relative to control; type: functional, organism-based; set-up: dose 10 mg/kg
Mus musculus [24] = assay: Antiobesity activity in Sabra mouse assessed as change in food consumption at 1 mg/kg, ip administered on day 8, 9, 10, 11, 14, 18, 24 and 32 measured after 4 weeks relative to control; type: functional; conditions: route intraperitoneal
Mus musculus [25] = assay: Antiobesity activity in Sabra mouse assessed as change in body weight at 1 mg/kg, ip administered on day 8, 9, 10, 11, 14, 18, 24 and 32 measured on day 25 relative to control; type: functional; conditions: route intraperitoneal
Mus musculus [26] = assay: Antiobesity activity in Sabra mouse assessed as change in body weight at 1 mg/kg, ip administered on day 8, 9, 10, 11, 14, 18, 24 and 32 measured on day 21 relative to control; type: functional; conditions: route intraperitoneal

Transient receptor potential cation channel subfamily V member 1 (Rattus norvegicus), sequence (O35433 whole entry): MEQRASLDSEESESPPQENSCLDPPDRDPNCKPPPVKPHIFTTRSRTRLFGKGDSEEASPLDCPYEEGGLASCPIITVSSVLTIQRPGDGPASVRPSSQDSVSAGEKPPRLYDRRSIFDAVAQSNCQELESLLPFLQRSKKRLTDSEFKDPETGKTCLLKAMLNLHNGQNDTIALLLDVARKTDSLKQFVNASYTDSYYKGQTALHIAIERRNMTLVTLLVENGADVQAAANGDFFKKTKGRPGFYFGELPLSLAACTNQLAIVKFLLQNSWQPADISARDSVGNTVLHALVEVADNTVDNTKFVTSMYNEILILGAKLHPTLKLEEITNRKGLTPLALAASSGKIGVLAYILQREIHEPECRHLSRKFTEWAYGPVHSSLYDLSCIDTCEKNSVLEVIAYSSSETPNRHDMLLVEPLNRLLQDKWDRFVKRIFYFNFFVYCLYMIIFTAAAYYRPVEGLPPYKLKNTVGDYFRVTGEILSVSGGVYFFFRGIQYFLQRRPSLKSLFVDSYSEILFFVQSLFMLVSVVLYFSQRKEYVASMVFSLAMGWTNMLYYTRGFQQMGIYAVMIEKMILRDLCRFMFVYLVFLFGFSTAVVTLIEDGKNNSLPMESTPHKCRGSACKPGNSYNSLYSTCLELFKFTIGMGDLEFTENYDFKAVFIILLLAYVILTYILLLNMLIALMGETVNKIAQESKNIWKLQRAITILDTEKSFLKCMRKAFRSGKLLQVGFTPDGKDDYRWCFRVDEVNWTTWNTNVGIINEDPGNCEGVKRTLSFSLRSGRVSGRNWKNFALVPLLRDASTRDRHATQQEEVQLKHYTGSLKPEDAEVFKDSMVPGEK

**Q.** How did the Activity (Mus musculus [1]) turn out when `CCCCCCCC/C=C\CCCCCCCC(=O)N[C@H](CO)C(C)C` was run?
**A.** The Activity was -5.49%.

**Q.** And the Activity (Mus musculus [2])?
**A.** The Activity was -4.05%.

**Q.** What about the Activity (Mus musculus [3]) of the same compound?
**A.** The Activity was -21.6%.

**Q.** And the Activity (Mus musculus [4])?
**A.** The Activity was -11.8%.

**Q.** And the Activity (Mus musculus [5])?
**A.** Its Activity is -2.7%.

**Q.** And the Activity (Mus musculus [6])?
**A.** Its Activity is 2.1%.

**Q.** And the Activity (Mus musculus [7])?
**A.** The Activity was -3.6%.

**Q.** And the Activity (Mus musculus [8])?
**A.** The Activity was -5.6%.

**Q.** What about the Activity (Mus musculus [9]) of the same compound?
**A.** Its Activity is -4.6%.

**Q.** What about the Activity (Mus musculus [10]) of the same compound?
**A.** The Activity was -8.2%.

**Q.** And the Activity (Mus musculus [11])?
**A.** The Activity was -6%.

**Q.** What about the Activity (Mus musculus [12]) of the same compound?
**A.** Its Activity is -7.5%.

**Q.** And the Activity (Mus musculus [13])?
**A.** The Activity was -5.2%.

**Q.** And the Activity (Mus musculus [14])?
**A.** Its Activity is 0.7%.

**Q.** What about the Activity (Mus musculus [15]) of the same compound?
**A.** The Activity was “Non-toxic”.

**Q.** And the Activity (Mus musculus [16])?
**A.** Its Activity is “Non-toxic”.

**Q.** What about the Activity (Mus musculus [17]) of the same compound?
**A.** The Activity was “Active”.

**Q.** And the Activity (Mus musculus [18])?
**A.** Its Activity is “Active”.

**Q.** What about the Activity (Hypothalamus) of the same compound?
**A.** The Activity was -33%.

**Q.** What about the inhibition [19] of the same compound?
**A.** Its inhibition is 1%.

**Q.** And the inhibition [20]?
**A.** Its inhibition is 14%.

**Q.** What about the Activity (Mus musculus [21]) of the same compound?
**A.** Its Activity is “Active”.

**Q.** What about the Activity (Mus musculus [22]) of the same compound?
**A.** Its Activity is -3.1%.

**Q.** And the Activity (Mus musculus [23])?
**A.** The Activity was “Active”.

**Q.** What about the Activity (Mus musculus [24]) of the same compound?
**A.** Its Activity is 90.3%.

**Q.** What about the Activity (Mus musculus [25]) of the same compound?
**A.** The Activity was -5%.

**Q.** What about the Activity (Mus musculus [26]) of the same compound?
**A.** The Activity was -2.4%.
